Where a name gives a salt, the structure may show the parent alone.
What was measured:
[1] = biological target: T1, Tubulin purified from pig brains (Sus scrofa, UniProt P02550+P02554); test: Assessment of the inhibition of tubulin polymerization (turbidimetry at 350 nm); type: biochemical; details: concentration which inhibits the rate of polymerization by 50%; tubulin 1 mg/ml, 37° C.; read-out: Inhibition of tubulin polymerization IC 50
T1 construct: Tubulin is purified from pig brains according to published methods; from tissue; host or cells: pig brain
T1 sequence (P02550 whole entry): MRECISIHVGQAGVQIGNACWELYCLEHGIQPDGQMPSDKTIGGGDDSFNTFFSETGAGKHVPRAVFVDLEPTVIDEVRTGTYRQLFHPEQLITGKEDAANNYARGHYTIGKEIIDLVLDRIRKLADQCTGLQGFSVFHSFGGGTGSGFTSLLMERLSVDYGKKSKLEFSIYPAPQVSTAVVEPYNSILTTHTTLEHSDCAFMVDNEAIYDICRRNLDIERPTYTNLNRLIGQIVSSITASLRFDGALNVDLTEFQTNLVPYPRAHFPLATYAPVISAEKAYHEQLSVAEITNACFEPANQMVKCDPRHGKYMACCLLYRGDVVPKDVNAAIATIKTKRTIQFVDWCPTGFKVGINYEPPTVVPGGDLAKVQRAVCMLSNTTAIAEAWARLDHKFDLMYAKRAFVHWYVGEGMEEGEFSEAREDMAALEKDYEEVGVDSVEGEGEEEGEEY
T1 sequence (P02554 whole entry): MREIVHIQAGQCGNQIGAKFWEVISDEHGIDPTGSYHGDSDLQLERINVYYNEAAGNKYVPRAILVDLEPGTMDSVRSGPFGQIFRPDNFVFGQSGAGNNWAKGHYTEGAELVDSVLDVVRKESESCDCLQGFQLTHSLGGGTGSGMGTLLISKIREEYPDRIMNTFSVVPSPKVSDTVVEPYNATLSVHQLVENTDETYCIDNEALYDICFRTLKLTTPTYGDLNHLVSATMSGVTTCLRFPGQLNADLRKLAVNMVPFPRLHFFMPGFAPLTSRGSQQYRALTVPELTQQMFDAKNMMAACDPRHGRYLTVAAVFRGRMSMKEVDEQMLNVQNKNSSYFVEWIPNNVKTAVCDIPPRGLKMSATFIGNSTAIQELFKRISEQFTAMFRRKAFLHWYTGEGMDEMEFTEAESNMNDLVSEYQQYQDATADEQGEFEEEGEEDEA
Procedure: Assessment of the Inhibition of Tubulin Polymerization
Tubulin is purified from pig brains according to published methods (Shelanski et al., 1973, Proc. Natl. Acad. Sci. USA, 70, 765-768. Weingarten et al., 1975, Proc. Natl. Acad. Sci. USA, 72, 1858-1862). Briefly, the brains are ground and centrifuged in an extraction buffer. The tubulin, present in the extract supernatant is subjected to two successive cycles of polymerization at 37° C. and depolymerization at 4° C., before being separated from the MAPs (Microtubule Associated Proteins) by chromatography on a phosphocellulose P11 column (Whatman). The tubulin thus isolated is more than 95% pure. It is stored in a buffer known as RB/2 30% glycerol, the composition of which is 50 mM MES-NaOH [2-(N-morpholino)ethanesulfonic acid], pH 6.8; 0.25 mM MgCl2; 0.5 mM EGTA; 30% (v/v) glycerol, 0.2 mM GTP (guanosine 5′-triphosphate).
The polymerization of the tubulin into microtubules is monitored by turbidimetry as follows: the tubulin is adjusted to a concentration of 10 μm (1 mg/ml) in the RB/2 30% glycerol buffer, to which are added 1 mM GTP and 6 mM MgCl2. The polymerization is initiated by increasing the temperature from 6° C. to 37° C. in a cuvette with a 1 cm optical pathlength, placed in a UVIKON 931 spectrophotometer (Kontron) equipped with a thermostatically-regulated cuvette holder. The increase in turbidity of the solution is monitored at 350 nm.
The products are dissolved at 10 mM in DMSO and added at variable concentrations (0.5 to 10 μm) to the tubulin solution before polymerization. The IC50 is defined as the concentration of the product which inhibits the rate of polymerization by 50%.

HCT116 cells = test: Inhibition of proliferation of the HCT116 human colon tumor line ([14C]-thymidine incorporation); type: cell-based; details: HCT-116, 48 hours incubation at 37° C., read-out: Inhibition of HCT116 proliferation IC 50
Procedure: Test for Determining the Inhibition of Proliferation of the HCT116 Human Colon Tumor Line
The proliferation of HCT116 cells is evaluated by mesuring the incorporation of [^14C]-thymidine in the following way. The HCT166 cells (from the ATCC) are cultured in a DMEM medium (Gibco) which contains 10% of fetal calf serum and antibiotics (1% penicillin, 1% streptomycin). To perform the proliferation test, the cells are seeded into 96-well cytostar microplates (Amersham) at the rate of 5000 cells per well. The [^14C]-thymidine (0.1 μCi/well) and the products to be evaluated are subsequently added. Variable concentrations of products up to 10 μM are used; the DMSO (solvent used to dissolve the products) should not exceed 0.5% in the medium. 48 hours after incubation at 37° C., the radioactivity incorporated into the cells is measured by counting the plate in a Tri-Lux counter (Wallac). The IC50 is defined as the concentration of product which reduces the radioactivity by 50% compared with an untreated control. A product with an IC50 of less than 10 μm is regarded as cytotoxic.

Structure (SMILES) | IC50 [1] | IC50 (HCT116 cells)
COc1cc(OC)cc(N2CCN(C(=O)c3nc(SC)n(C)c3-c3ccccc3)CC2)c1 [Example 24, [4-(3,5-Dimethoxyphenyl)piperazin-1-yl](N-methyl-2-methylsulfanyl-5-phenyl-1H-imidazol-4-yl)methanone] | 9500 nM | 114 nM
Cn1ccc(C(=O)N2CCN(c3cccc(C(N)=O)c3)CC2)c1-c1ccccc1 [Example 50, 3-[4-(1-Methyl-2-phenyl-1H-pyrrol-3-ylcarbonyl)piperazin-1-yl]benzamide] | 3410 nM | 536 nM
COc1cc(OC)cc(N2CCN(C(=O)c3[nH]ccc3-c3ccccc3)CC2)c1 [Example 8, [4-(3,5-Dimethoxyphenyl)piperazin-1-yl](3-phenyl-1H-pyrrol-2-yl)methanone] | 1200 nM | 2.9 nM
Cn1cc(C(=O)N2CCN(c3cccc(CO)c3)CC2)c(-c2ccccc2)c1 [Example 69] | 710 nM | 45 nM
COc1cc(OC)cc(N2CCN(C(=O)c3c[nH]cc3-c3ccccc3)CC2)c1 [Example 16, [4-(3,5-Dimethoxyphenyl)piperazin-1-yl](4-phenyl-1H-pyrrol-3-yl)methanone] | 2400 nM | 8.5 nM
Cn1cc(C(=O)N2CCN(c3cccc(C(N)=O)c3)CC2)c(-c2ccccc2)c1 [Example 37, 3-[4-(1-Methyl-4-phenyl-1H-pyrrol-3-yl-carbonyl)piperazin-1-yl]benzamide] | 720 nM | 14.9 nM
COc1cc(OC)cc(N2CCN(C(=O)c3nc(S)[nH]c3-c3ccccc3)CC2)c1 [Example 20, [4-(3,5-Dimethoxyphenyl)piperazin-1-yl](2-mercapto-5-phenyl-1H-imidazol-4-yl)methanone] | 700 nM | 11.7 nM
O=C(c1sccc1-c1ccccc1)N1CCN(c2cccc(Cl)c2)CC1 [Example 4, [4-(3-Chlorophenyl)piperazin-1-yl](3-phenylthiophen-2-yl)methanone] | 2000 nM | 52.5 nM
COc1cc(OC)cc(N2CCN(C(=O)c3sc(N)nc3-c3ccccc3)CC2)c1 [Example 42, (2-Amino-4-phenylthiazol-5-yl)[4-(3,5-dimethoxyphenyl)piperazin-1-yl]-methanone] | 1290 nM | 1.6 nM
NC(=O)c1cccc(N2CCN(C(=O)c3cncn3-c3ccccc3)CC2)c1 [Example 17, [4-(3-Carboxamidophenyl)piperazin-1-yl](1-phenyl-1H-imidazol-5-yl)methanone] | 5500 nM | 536 nM
O=C(c1cncn1-c1ccccc1)N1CCN(c2cccc(Cl)c2)CC1 [Example 1, [4-(3-Chlorophenyl)piperazin-1-yl](1-phenyl-1H-imidazol-5-yl)methanone] | 2000 nM | 29.6 nM
O=C(c1cc[nH]c1-c1ccccc1)N1CCN(c2cccc(Cl)c2)CC1 [Example 26, [4-(3-Chlorophenyl)piperazin-1-yl](2-phenyl-1H-pyrrol-3-yl)methanone] | 3200 nM | 75.2 nM
COc1cc(OC)cc(N2CCN(C(=O)c3[nH]c(C)nc3-c3ccccc3)CC2)c1 [Example 43, [4-(3,5-Dimethoxyphenyl)piperazin-1-yl](2-methyl-5-phenyl-3H-imidazol-4-yl)methanone] | 600 nM | 7.1 nM
CC(=O)Nc1cccc(N2CCN(C(=O)c3[nH]cnc3-c3ccccc3)CC2)c1 [Example 12, [4-(3-Acetylaminophenyl)piperazin-1-yl](4-phenyl-1H-imidazol-5-yl)methanone] | 3500 nM | 1190 nM
N#Cc1cccc(N2CCN(C(=O)c3cncn3-c3ccccc3)CC2)c1 [Example 13, [4-(3-Cyanophenyl)piperazin-1-yl](1-phenyl-1H-imidazol-5-yl)methanone] | 2900 nM | 90.9 nM
O=C(c1ncoc1-c1ccccc1)N1CCN(c2cccc(Cl)c2)CC1 [Example 2, [4-(3-Chlorophenyl)piperazin-1-yl](5-phenyl-1,3-oxazol-4-yl)methanone] | 22000 nM | 8750 nM
O=C(c1[nH]cnc1-c1ccccc1)N1CCN(c2cccc(OC(F)F)c2)CC1 [Example 30, [4-(3-Difluoromethoxyphenyl)piperazin-1-yl](5-phenyl-1H-imidazol-4-yl)methanone] | 800 nM | 6.4 nM
CSc1nc(-c2ccccc2)c(C(=O)N2CCN(c3cccc(C(N)=O)c3)CC2)[nH]1 [Example 55, 3-[4-(2-Methylsulfanyl-4-phenyl-1H-imidazol-5-ylcarbonyl)piperazin-1-yl]-benzamide] | 1380 nM | 64 nM
N#Cc1cccc(N2CCN(C(=O)c3cn(CO)cc3-c3ccccc3)CC2)c1 [Example 72, 3-[4-(1-Hydroxymethyl-4-phenyl-1H-pyrrol-3-ylcarbonyl)piperazin-1-yl]benzonitrile] | 580 nM | 29.5 nM
COc1cc(OC)cc(N2CCN(C(=O)c3nc(SC)[nH]c3-c3ccccc3)CC2)c1 [Example 23, [4-(3,5-Dimethoxyphenyl)piperazin-1-yl](2-methylsulfanyl-5-phenyl-1H-imidazol-4-yl)methanone] | 600 nM | 1.7 nM
Cc1nc(-c2ccccc2)c(C(=O)N2CCN(c3cccc(C(N)=O)c3)CC2)[nH]1 [Example 59, 3-[4-(2-Methyl-5-phenyl-1H-imidazol-4-ylcarbonyl)piperazin-1-yl]benzamide] | 4660 nM | 364 nM
O=C(c1[nH]cnc1-c1ccccc1)N1CCN(c2cccc(CO)c2)CC1 [Example 68, [4-(3-Hydroxymethylphenyl)piperazin-1-yl](4-phenyl-1H-imidazol-5-yl)methanone] | 480 nM | 13 nM
O=C(c1[nH]cnc1-c1ccccc1)N1CCN(c2cccnc2)CC1 [Example 10, [4-(Pyridin-3-yl)piperazin-1-yl](4-phenyl-1H-imidazol-5-yl)methanone] | 3100 nM | 88.5 nM
O=C(c1[nH]ccc1-c1ccccc1)N1CCN(c2cccc(Cl)c2)CC1 [Example 6, [4-(3-Chlorophenyl)piperazin-1-yl](3-phenyl-1H-pyrrol-2-yl)methanone] | 690 nM | 34 nM
COc1cc(OC)cc(N2CCN(C(=O)c3cncn3-c3ccccc3)CC2)c1 [Example 11, [4-(3,5-Dimethoxyphenyl)piperazin-1-yl](1-phenyl-1H-imidazol-5-yl)-methanone hydrochloride] | 2400 nM | 45.7 nM
COC(=O)CCn1cc(C(=O)N2CCN(c3cccc(Cl)c3)CC2)c(-c2ccccc2)c1 [Example 34, Methyl 3-{3-[4-(3-chlorophenyl)piperazin-1-ylcarbonyl]-4-phenylpyrrol-1-yl}-propionate] | 2160 nM | 749 nM
NC(=O)c1cccc(N2CCN(C(=O)c3[nH]cnc3-c3ccccc3)CC2)c1 [Example 22, [4-(3-Carboxamidophenyl)piperazin-1-yl](4-phenyl-1H-imidazol-5-yl)-methanone] | 1100 nM | 193 nM
COc1cc(OC)cc(N2CCN(C(=O)c3cn(Cc4cccnc4)cc3-c3ccccc3)CC2)c1 [Example 48, [4-(3,5-Dimethoxyphenyl)piperazin-1-yl][1-(pyridin-3-yl)methyl-4-phenyl-1H-pyrrol-3-yl]methanone] | 750 nM | 51.1 nM
COc1cc(OC)cc(N2CCN(C(=O)c3[nH]c([S+](C)[O-])nc3-c3ccccc3)CC2)c1 (stereo not drawn) [Example 33, [4-(3,5-Dimethoxyphenyl)piperazin-1-yl](2-methanesulfinyl-5-phenyl-1H-imidazol-4-yl)methanone] | 1950 nM | 180 nM
NC(=O)c1cccc(N2CCN(C(=O)c3[nH]ccc3-c3ccccc3)CC2)c1 [Example 39, 3-[4-(3-Phenyl-1H-pyrrol-2-ylcarbonyl)piperazin-1-yl]benzamide] | 12400 nM | 200 nM
